Experimental data published in PubChem BioAssay (NCI).
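A five-concentration, 48-hour dose response in 96-well plates underlies each endpoint, interpolated linearly between surrounding concentrations. GI50 is the concentration that inhibits growth by half. TGI: concentration producing complete growth inhibition.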

Assays:
Assay in all cases: inhibition of tumour cell growth, NCI panel, 48 h
SNB-19 CNS = test system: SNB-19 CNS
ACHN renal = test system: ACHN renal
HOP-92 NSCLC = test system: HOP-92 NSCLC
OVCAR-3 ovarian = test system: OVCAR-3 ovarian
SF-295 CNS = test system: SF-295 CNS
NCI-H23 lung = test system: NCI-H23 lung
M14 melanoma = test system: M14 melanoma
786-0 renal = test system: 786-0 renal
CCRF-CEM leukemia = test system: CCRF-CEM leukemia
PC-3 prostate = test system: PC-3 prostate
SF-268 CNS = test system: SF-268 CNS
OVCAR-5 ovarian = test system: OVCAR-5 ovarian
SK-MEL-28 melanoma = test system: SK-MEL-28 melanoma
SW-620 colon = test system: SW-620 colon
MCF7 breast = test system: MCF7 breast
A498 renal = test system: A498 renal
KM12 colon = test system: KM12 colon
COLO 205 colon = test system: COLO 205 colon
UO-31 renal = test system: UO-31 renal
HCT-116 colon = test system: HCT-116 colon
BT-549 breast = test system: BT-549 breast
RXF 393 renal = test system: RXF 393 renal
NCI-H226 lung = test system: NCI-H226 lung
SN12C renal = test system: SN12C renal
HS 578T breast = test system: HS 578T breast
LOX IMVI melanoma = test system: LOX IMVI melanoma
UACC-62 melanoma = test system: UACC-62 melanoma
SK-OV-3 ovarian = test system: SK-OV-3 ovarian
HCT-15 colon = test system: HCT-15 colon
SR leukemia = test system: SR leukemia
OVCAR-8 ovarian = test system: OVCAR-8 ovarian
MALME-3M melanoma = test system: MALME-3M melanoma
HOP-62 NSCLC = test system: HOP-62 NSCLC
CAKI-1 renal = test system: CAKI-1 renal
HT29 colon = test system: HT29 colon
MDA-MB-435 = test system: MDA-MB-435
NCI/ADR-RES ovarian = test system: NCI/ADR-RES ovarian
EKVX NSCLC = test system: EKVX NSCLC
TK-10 renal = test system: TK-10 renal
U251 CNS = test system: U251 CNS
UACC-257 melanoma = test system: UACC-257 melanoma
MDA-MB-231 breast = test system: MDA-MB-231 breast
NCI-H522 lung = test system: NCI-H522 lung
DU-145 prostate = test system: DU-145 prostate
NCI-H460 lung = test system: NCI-H460 lung
SF-539 CNS = test system: SF-539 CNS
SK-MEL-2 melanoma = test system: SK-MEL-2 melanoma
K-562 leukemia = test system: K-562 leukemia
SK-MEL-5 melanoma = test system: SK-MEL-5 melanoma
OVCAR-4 ovarian = test system: OVCAR-4 ovarian
MOLT-4 leukemia = test system: MOLT-4 leukemia
A549 NSCLC = test system: A549 NSCLC
HL-60(TB) leukemia = test system: HL-60(TB) leukemia
RPMI-8226 leukemia = test system: RPMI-8226 leukemia
T-47D breast = test system: T-47D breast
HCC-2998 colon = test system: HCC-2998 colon
IGROV1 ovarian = test system: IGROV1 ovarian

Question: For COc1ccc2[nH]cc(-c3nc(N)nnc3-c3cn(C)c4ccc(Br)cc34)c2c1, which GI50 (SNB-19 CNS) is on record?
Answer: 4.09 µM

Question: What about the TGI (SNB-19 CNS) of the same molecule?
Answer: 20.1 µM

Question: What about the GI50 (ACHN renal) of the same molecule?
Answer: 4.94 µM

Question: What about the TGI (ACHN renal) of the same molecule?
Answer: 32 µM

Question: What about the GI50 (HOP-92 NSCLC) of the same molecule?
Answer: 2.58 µM

Question: And the TGI (HOP-92 NSCLC)?
Answer: 17.3 µM

Question: What about the GI50 (OVCAR-3 ovarian) of the same molecule?
Answer: 2.9 µM

Question: And the TGI (OVCAR-3 ovarian)?
Answer: 10.6 µM

Question: And the GI50 (SF-295 CNS)?
Answer: 2.8 µM

Question: What about the TGI (SF-295 CNS) of the same molecule?
Answer: 13 µM

Question: What about the GI50 (NCI-H23 lung) of the same molecule?
Answer: 2.81 µM

Question: What about the TGI (NCI-H23 lung) of the same molecule?
Answer: 13 µM

Question: What about the GI50 (M14 melanoma) of the same molecule?
Answer: 2.66 µM

Question: What about the TGI (M14 melanoma) of the same molecule?
Answer: 12.4 µM

Question: What about the GI50 (786-0 renal) of the same molecule?
Answer: 4.23 µM

Question: What about the TGI (786-0 renal) of the same molecule?
Answer: 25.4 µM

Question: And the GI50 (CCRF-CEM leukemia)?
Answer: 3.57 µM

Question: What about the TGI (CCRF-CEM leukemia) of the same molecule?
Answer: > 100 µM

Question: And the GI50 (PC-3 prostate)?
Answer: 2.62 µM

Question: What about the TGI (PC-3 prostate) of the same molecule?
Answer: 22.7 µM

Question: What about the GI50 (SF-268 CNS) of the same molecule?
Answer: 5.87 µM

Question: What about the TGI (SF-268 CNS) of the same molecule?
Answer: 36.1 µM

Question: And the GI50 (OVCAR-5 ovarian)?
Answer: 4.61 µM

Question: What about the TGI (OVCAR-5 ovarian) of the same molecule?
Answer: 30.6 µM

Question: What about the GI50 (SK-MEL-28 melanoma) of the same molecule?
Answer: 6.81 µM

Question: What about the TGI (SK-MEL-28 melanoma) of the same molecule?
Answer: 22.2 µM

Question: What about the GI50 (SW-620 colon) of the same molecule?
Answer: 3.85 µM

Question: What about the TGI (SW-620 colon) of the same molecule?
Answer: 22.4 µM

Question: What about the GI50 (MCF7 breast) of the same molecule?
Answer: 1.22 µM

Question: And the TGI (MCF7 breast)?
Answer: 13.5 µM

Question: What about the GI50 (A498 renal) of the same molecule?
Answer: 2.11 µM

Question: What about the TGI (A498 renal) of the same molecule?
Answer: 6.09 µM

Question: What about the GI50 (KM12 colon) of the same molecule?
Answer: 2.86 µM

Question: What about the TGI (KM12 colon) of the same molecule?
Answer: 18.7 µM

Question: What about the GI50 (COLO 205 colon) of the same molecule?
Answer: 3.48 µM

Question: And the TGI (COLO 205 colon)?
Answer: 12.6 µM

Question: And the GI50 (UO-31 renal)?
Answer: 2.31 µM

Question: What about the TGI (UO-31 renal) of the same molecule?
Answer: 17.5 µM

Question: What about the GI50 (HCT-116 colon) of the same molecule?
Answer: 3.7 µM

Question: What about the TGI (HCT-116 colon) of the same molecule?
Answer: 23.7 µM

Question: What about the GI50 (BT-549 breast) of the same molecule?
Answer: 4.19 µM

Question: And the TGI (BT-549 breast)?
Answer: 24.8 µM

Question: What about the GI50 (RXF 393 renal) of the same molecule?
Answer: 1.8 µM

Question: And the TGI (RXF 393 renal)?
Answer: 4.68 µM

Question: What about the GI50 (NCI-H226 lung) of the same molecule?
Answer: 4.29 µM

Question: And the TGI (NCI-H226 lung)?
Answer: 39.8 µM

Question: And the GI50 (SN12C renal)?
Answer: 4.5 µM

Question: What about the TGI (SN12C renal) of the same molecule?
Answer: 22.8 µM

Question: What about the GI50 (HS 578T breast) of the same molecule?
Answer: 2.3 µM

Question: And the TGI (HS 578T breast)?
Answer: 8.63 µM

Question: What about the GI50 (LOX IMVI melanoma) of the same molecule?
Answer: 3.89 µM

Question: What about the TGI (LOX IMVI melanoma) of the same molecule?
Answer: 19.9 µM

Question: And the GI50 (UACC-62 melanoma)?
Answer: 1.86 µM

Question: And the TGI (UACC-62 melanoma)?
Answer: 11.5 µM

Question: And the GI50 (SK-OV-3 ovarian)?
Answer: 4.29 µM

Question: And the TGI (SK-OV-3 ovarian)?
Answer: 32.2 µM

Question: What about the GI50 (HCT-15 colon) of the same molecule?
Answer: 2.86 µM

Question: And the TGI (HCT-15 colon)?
Answer: 22 µM

Question: And the GI50 (SR leukemia)?
Answer: 1.19 µM

Question: And the TGI (SR leukemia)?
Answer: > 100 µM

Question: What about the GI50 (OVCAR-8 ovarian) of the same molecule?
Answer: 4.37 µM

Question: What about the TGI (OVCAR-8 ovarian) of the same molecule?
Answer: > 100 µM

Question: And the GI50 (MALME-3M melanoma)?
Answer: 3.36 µM

Question: What about the TGI (MALME-3M melanoma) of the same molecule?
Answer: 19.8 µM

Question: And the GI50 (HOP-62 NSCLC)?
Answer: 4.52 µM

Question: What about the TGI (HOP-62 NSCLC) of the same molecule?
Answer: 26.2 µM

Question: What about the GI50 (CAKI-1 renal) of the same molecule?
Answer: 1.29 µM

Question: What about the TGI (CAKI-1 renal) of the same molecule?
Answer: 19.5 µM

Question: What about the GI50 (HT29 colon) of the same molecule?
Answer: 2.69 µM

Question: And the TGI (HT29 colon)?
Answer: 12.1 µM

Question: And the GI50 (MDA-MB-435)?
Answer: 0.414 µM

Question: And the TGI (MDA-MB-435)?
Answer: 1.76 µM

Question: And the GI50 (NCI/ADR-RES ovarian)?
Answer: 4.34 µM

Question: What about the TGI (NCI/ADR-RES ovarian) of the same molecule?
Answer: 50.1 µM

Question: And the GI50 (EKVX NSCLC)?
Answer: 3.95 µM

Question: What about the TGI (EKVX NSCLC) of the same molecule?
Answer: 30.2 µM

Question: What about the GI50 (TK-10 renal) of the same molecule?
Answer: 6.45 µM

Question: And the TGI (TK-10 renal)?
Answer: 60.2 µM

Question: And the GI50 (U251 CNS)?
Answer: 3.82 µM

Question: What about the TGI (U251 CNS) of the same molecule?
Answer: 26.4 µM

Question: What about the GI50 (UACC-257 melanoma) of the same molecule?
Answer: 12.4 µM

Question: What about the TGI (UACC-257 melanoma) of the same molecule?
Answer: 46.2 µM

Question: What about the GI50 (MDA-MB-231 breast) of the same molecule?
Answer: 4.48 µM

Question: And the TGI (MDA-MB-231 breast)?
Answer: 28.3 µM

Question: What about the GI50 (NCI-H522 lung) of the same molecule?
Answer: 2.4 µM

Question: And the TGI (NCI-H522 lung)?
Answer: 15.4 µM

Question: And the GI50 (DU-145 prostate)?
Answer: 4.23 µM

Question: What about the TGI (DU-145 prostate) of the same molecule?
Answer: 21.8 µM

Question: And the GI50 (NCI-H460 lung)?
Answer: 3.03 µM

Question: And the TGI (NCI-H460 lung)?
Answer: 15.6 µM

Question: What about the GI50 (SF-539 CNS) of the same molecule?
Answer: 3.11 µM

Question: What about the TGI (SF-539 CNS) of the same molecule?
Answer: 12 µM

Question: What about the GI50 (SK-MEL-2 melanoma) of the same molecule?
Answer: 4.02 µM

Question: And the TGI (SK-MEL-2 melanoma)?
Answer: 20.8 µM

Question: And the GI50 (K-562 leukemia)?
Answer: 1.07 µM

Question: What about the TGI (K-562 leukemia) of the same molecule?
Answer: > 100 µM

Question: And the GI50 (SK-MEL-5 melanoma)?
Answer: 2.58 µM

Question: And the TGI (SK-MEL-5 melanoma)?
Answer: 8.5 µM

Question: And the GI50 (OVCAR-4 ovarian)?
Answer: 4.61 µM

Question: And the TGI (OVCAR-4 ovarian)?
Answer: 84 µM

Question: And the GI50 (MOLT-4 leukemia)?
Answer: 3.73 µM

Question: What about the TGI (MOLT-4 leukemia) of the same molecule?
Answer: > 100 µM

Question: What about the GI50 (A549 NSCLC) of the same molecule?
Answer: 5.59 µM

Question: What about the TGI (A549 NSCLC) of the same molecule?
Answer: 90.3 µM

Question: What about the GI50 (HL-60(TB) leukemia) of the same molecule?
Answer: 3.41 µM

Question: What about the TGI (HL-60(TB) leukemia) of the same molecule?
Answer: > 100 µM

Question: And the GI50 (RPMI-8226 leukemia)?
Answer: 3.51 µM

Question: And the TGI (RPMI-8226 leukemia)?
Answer: > 100 µM

Question: What about the GI50 (T-47D breast) of the same molecule?
Answer: 3.31 µM

Question: And the TGI (T-47D breast)?
Answer: 30.1 µM

Question: And the GI50 (HCC-2998 colon)?
Answer: 6.26 µM

Question: And the TGI (HCC-2998 colon)?
Answer: 23.7 µM

Question: What about the GI50 (IGROV1 ovarian) of the same molecule?
Answer: 2.89 µM

Question: And the TGI (IGROV1 ovarian)?
Answer: 17.1 µM
